Experimental data from paper PMC4869729 (Chemical Science, 2015).

Experiments:
[1] = test system: TrxR in human ovarian A2780 cancer cells; details: 10 μM; cited from earlier work
thioredoxin reductase = test: Thioredoxin reductase activity in treated Caki-1 cells; format: cell-based, human
[2] = test system: TrxR in human breast MCF-7 cancer cells; details: MCF-7 cells, 4 μM; cited from earlier work
MAPKAPK-3 = test: Immunoblotting of MAPKAPK-3 in Auranofin treated Caki-1 cells; format: cell-based, human; details: Caki-1, Western blot (Fig. S46)
plasmid (pBR322) DNA = test: Electrophoresis mobility shift assay; format: binding; details: pBR322, metal/DNAbp ratios 0.25-2.0, 37 °C, 20 h
[3] = test system: human renal Caki-1 cancer cell lines; test: XTT cytotoxicity assay, Caki-1; format: cell-based; details: read-out: IC50 Caki-1, 72 h incubation
[4] = test system: non-tumorigenic human embryonic kidney cell lines HEK-293T; test: XTT cytotoxicity assay, HEK-293T; format: cell-based; details: read-out: IC50 HEK-293T, 72 h incubation
[5] = test system: human renal proximal tubular cells (RPTC); test: XTT cytotoxicity assay, RPTC; format: cell-based; details: read-out: IC50 RPTC, 72 h incubation

For `CC(=O)OC[C@H]1O[C@@H]([S-])[C@H](OC(C)=O)[C@@H](OC(C)=O)[C@@H]1OC(C)=O.CCP(CC)CC.[Au+]` [Auranofin], the “inhibition of total TrxR activity” value [1] is given as 30%, the “inhibition of thioredoxin reductase activity” value (thioredoxin reductase; 5 μM, 5 hour incubation) is given as 74.1% and the IC50 (thioredoxin reductase; read-out: IC50 thioredoxin reductase, after 12 hours) is given as 0.61 µM. The “inhibition of total TrxR activity” value [2] was 18% and the “expression of MAPKAPK-3” value (MAPKAPK-3) was “failed to down-regulate MAKPAPK-3”.
With `N.N.[Cl][Pt][Cl]` [Cisplatin] the “effect on electrophoretic mobility of plasmid forms” value (plasmid (pBR322) DNA) was “decreased mobility of the CCC form and increased mobility of the OC form”, the IC50 [3] was 29 ± 4.11 µM and the IC50 [4] was 3.27 ± 0.13 µM.
`COc1ccc(C[C]2([Ti+2][C]3(Cc4ccc(OC)cc4)C=CC=C3)C=CC=C2)cc1.[Cl-].[Cl-]` [Titanocene Y] showed an IC50 [3] of 29.4 ± 4.18 µM.
For [Au(Hmba)(PPh3)] [compound 4], the “effect on electrophoretic mobility of plasmid forms” value (plasmid (pBR322) DNA) was “did not affect the mobility of the faster-running supercoiled form”, the IC50 [3] was 2.76 ± 0.35 µM and the IC50 [4] was 1.11 ± 0.65 µM. It also gave an IC50 [5] of 3.87 ± 0.15 µM.
